Laboratory results: patent US20110166149A1, “PTERIDINE DERIVATIVES FOR TREATING RESPIRATORY DISEASE” (TARGEGEN INC., priority 2008, published 2011)
Read-outs that look alike come from different tables or passages of the source. Marks after values point to notes of the source that are not given here.

Assay: Inhalation exposure: Compound A concentration in lung, plasma and BALF (Example 2)
Type: in vivo, BALB/c mice
Settings: for concentration at 2 h / concentration at 4 h / concentration at 8 h / concentration at 12 h / concentration at 24 h / concentration at 0.083 h / concentration at 0.25 h / concentration at 0.5 h / concentration at 1 h: male, BALB/c, mouse, lung, inhaled, read-out: Compound A concentration Lung; for concentration at 2 h / concentration at 4 h / concentration at 8 h / concentration at 12 h / concentration at 24 h / concentration at 0.083 h / concentration at 0.25 h / concentration at 0.5 h / concentration at 1 h / Compound A concentration Plasma: mice, 30 min inhalation
Description: A series of compositions for pulmonary delivery were prepared by making a 20% suspension of compound A in a 5% tyloxapol solution in water. Particle size reduction was achieved using a colloid mill (magicLAB®, MK module, for 6 hours @ 12,000 rpm, while maintaining a temperature below 50° C.). Samples at 4% w/v compound A were prepared by dilution with DI water.
Low (0.02 mg/L), mid (0.07 mg/L), and high (0.20 mg/L) target aerosol concentrations 0.3% Compound A/0.075% tyloxapol, 0.6% Compound A/0.15% tyloxapol, and 1.5% Compound A/0.375% tyloxapol suspensions were used. These low, mid, and high target formulations were prepared as follows: […]
4% compound A and 1% tyloxapol were removed from refrigeration and approximately 2.25, 4.5, and 12 mL were transferred into clean 50 mL graduated plastic tubes, labeled 0.3% A/0.075% tyloxapol, 0.6% A/0.15% tyloxapol, and 1.5% A/0.375% tyloxapol suspensions and allowed to warm to room temperature. Each was diluted to 20 mL with ultra pure water and vortexed until completely mixed. Each formulation was made the morning of exposure to alleviate any storing/stability issues.
Eighty-seven (87) male BALB/c mice (8 weeks of age on arrival and 18.6-24.6 g on exposure day) were purchased from Charles River Laboratories (Raleigh, N.C.). The three animals with the lowest body weights and the three with the highest body weights were excluded from the study on the day of randomization. The remaining eighty-one (81) animals were assigned to the study. Temperatures and relative humidity (RH) in animal housing areas were within the target range specified in the protocol.
Animals were exposed to one of three concentrations of Compound A aerosols for a target of 30 min.
The actual concentrations of test article in the exposure atmospheres were determined by chemical analysis of timed filter samples collected directly from a nose-only exposure port during exposure. In addition, one impactor sample was obtained to verify particle size distribution (PSD), which is characterized by mass median aerodynamic diameter (MMAD) and geometric standard deviation (GSD). The filters and impactor stages were analyzed chemically by LRRI and are described below.

[1] = nominal aerosol 0.02 mg/L, 12 h
[2] = nominal aerosol 0.02 mg/L, 24 h
[3] = nominal aerosol 0.07 mg/L, 0.083 h
[4] = nominal aerosol 0.07 mg/L, 0.25 h
[5] = nominal aerosol 0.07 mg/L, 0.5 h
[6] = nominal aerosol 0.07 mg/L, 12 h
[7] = nominal aerosol 0.07 mg/L, 24 h
[8] = nominal aerosol 0.2 mg/L, 0.083 h
[9] = nominal aerosol 0.2 mg/L, 0.25 h
[10] = nominal aerosol 0.2 mg/L, 0.5 h
[11] = mouse lung, aerosol conc. 0.02 mg/L
[12] = mouse lung, aerosol conc. 0.07 mg/L
[13] = mouse lung, aerosol conc. 0.2 mg/L

Nc1nc(N)c2nc(-c3cccc(O)c3)c(-c3cccc(O)c3)nc2n1 [Compound A, 6,7-bis(3-hydroxyphenyl)-pteridine-2,4-diamine]
concentration at 2 h (nominal aerosol 0.02 mg/L, 2 h): 9550 ± 840 ng/g | concentration at 4 h (nominal aerosol 0.02 mg/L, 4 h): 10500 ± 3250 ng/g | concentration at 8 h (nominal aerosol 0.02 mg/L, 8 h): 5660 ± 3390 ng/g | concentration at 12 h [1]: 8670 ± 2310 ng/g | concentration at 24 h [2]: 3390 ± 2540 ng/g | concentration at 0.083 h [3]: 20600 ± 10100 ng/g | concentration at 0.25 h [4]: 16500 ± 2250 ng/g | concentration at 0.5 h [5]: 16600 ± 600 ng/g | concentration at 1 h (nominal aerosol 0.07 mg/L, 1 h): 17200 ± 2430 ng/g | concentration at 2 h (nominal aerosol 0.07 mg/L, 2 h): 22700 ± 5090 ng/g | concentration at 4 h (nominal aerosol 0.07 mg/L, 4 h): 17000 ± 1620 ng/g | concentration at 8 h (nominal aerosol 0.07 mg/L, 8 h): 15900 ± 3310 ng/g | concentration at 12 h [6]: 16800 ± 12500 ng/g | concentration at 24 h [7]: 10800 ± 660 ng/g | concentration at 0.083 h [8]: 41000 ± 10300 ng/g | concentration at 0.25 h [9]: 39200 ± 12300 ng/g | concentration at 0.5 h [10]: 67200 ± 39100 ng/g | concentration at 1 h (nominal aerosol 0.2 mg/L, 1 h): 37700 ± 8070 ng/g | concentration at 2 h (nominal aerosol 0.2 mg/L, 2 h): 49300 ± 15400 ng/g | concentration at 4 h (nominal aerosol 0.2 mg/L, 4 h): 44600 ± 2400 ng/g | concentration at 8 h (nominal aerosol 0.2 mg/L, 8 h): 44000 ± 12000 ng/g | concentration at 12 h (nominal aerosol 0.2 mg/L, 12 h): 40800 ± 6290 ng/g | concentration at 24 h (nominal aerosol 0.2 mg/L, 24 h): 26800 ± 2630 ng/g | Compound A concentration Plasma (nominal aerosol 0.02 mg/L, 0.083 h): 2.16 (⅔) ng/mL | Compound A concentration Plasma (nominal aerosol 0.02 mg/L, 0.25 h): <LLOQ | Compound A concentration Plasma (nominal aerosol 0.02 mg/L, 0.5 h): 1.98 (⅔) ng/mL | Compound A concentration Plasma (nominal aerosol 0.02 mg/L, 1 h): 1.19 (⅓) ng/mL | Compound A concentration Plasma (nominal aerosol 0.02 mg/L, 2 h): <LLOQ | Compound A concentration Plasma (nominal aerosol 0.02 mg/L, 4 h): <LLOQ | Compound A concentration Plasma (nominal aerosol 0.02 mg/L, 8 h): <LLOQ | Compound A concentration Plasma [1]: <LLOQ | Compound A concentration Plasma [2]: <LLOQ | Compound A concentration Plasma [3]: 5.43 (⅓) ng/mL | Compound A concentration Plasma [4]: 1.03 (⅓) ng/mL | Compound A concentration Plasma [5]: 2.45 (⅓) ng/mL | Compound A concentration Plasma (nominal aerosol 0.07 mg/L, 1 h): <LLOQ | Compound A concentration Plasma (nominal aerosol 0.07 mg/L, 2 h): <LLOQ | Compound A concentration Plasma (nominal aerosol 0.07 mg/L, 4 h): <LLOQ | Compound A concentration Plasma (nominal aerosol 0.07 mg/L, 8 h): <LLOQ | Compound A concentration Plasma [6]: 2.05 (⅓) ng/mL | Compound A concentration Plasma [7]: <LLOQ | Compound A concentration Plasma [8]: 1.34 (⅔) ng/mL | Compound A concentration Plasma [9]: 1.43 (⅓) ng/mL | Compound A concentration Plasma [10]: 1.15 (⅓) ng/mL | Compound A concentration Plasma (nominal aerosol 0.2 mg/L, 1 h): 1.62 (⅔) ng/mL | Compound A concentration Plasma (nominal aerosol 0.2 mg/L, 2 h): 1.21 (⅓) ng/mL | Compound A concentration Plasma (nominal aerosol 0.2 mg/L, 4 h): 1.21 (⅔) ng/mL | Compound A concentration Plasma (nominal aerosol 0.2 mg/L, 8 h): 2.19 (⅓) ng/mL | Compound A concentration Plasma (nominal aerosol 0.2 mg/L, 12 h): 2.08 (⅔) ng/mL | Compound A concentration Plasma (nominal aerosol 0.2 mg/L, 24 h): <LLOQ | Thalf (mouse BALF, aerosol conc. 0.02 mg/L): 39.8 h | Thalf (mouse BALF, aerosol conc. 0.07 mg/L): 16.7 h | Thalf (mouse BALF, aerosol conc. 0.2 mg/L): 17.0 h | AUC(0-24) [11]: 176 µg·h/g | AUCinf [11]: 247 µg·h/g | Thalf (mouse lung, aerosol conc. 0.02 mg/L, Regression Coefficient is less than 0.9): 14.5^# hrs | AUC(0-24) [12]: 373 µg·h/g | AUCinf [12]: 757 µg·h/g | Thalf (mouse lung, aerosol conc. 0.07 mg/L, Regression Coefficient is less than 0.9): 24.6^# hrs | AUC(0-24) [13]: 938 µg·h/g | AUCinf [13]: 1777 µg·h/g | Thalf [13]: 21.7 h
